As usually defined, the ED50 is the dose that gives a 50% effect, or the effect in half of the subjects.

Bounds are passed on as bounds.

For this experiment, the system named is Plasmodium vinckei petteri (strain 279 BY). Nature of the experiment: In vivo measurement of the antimalarial activity in mice infected with Plasmodium vinckei petteri (4-day ip treatment). On the set-up: species or system Plasmodium vinckei petteri in female Swiss mice. An excerpt: • ED50=dose in mg/kg/day which brings about a 50% decrease in parasitaemia, observed in the infected mice, • ED90=dose in mg/kg/day which brings about a 90% decrease in parasitaemia, observed in the infected mice, • ip=intraperitoneal administration, • iv=intravenous administration, • ir=intrarectal administration.
On day 0 (D0), female “Swiss” mice (OF1, 22-26 g) (Charles River Laboratories France, 59 rue de la Paix, 76410 Saint-Aubin-les-Elbeuf) are inoculated, by iv injection in the caudal vein, with 10^8 parasitized erythrocytes suspended in 200 μl of NaCl (0.9%). The parasites used are of Plasmodium vinckei petteri type (strain 279 BY, supplied by Dr. I Landau, Paris, France).
The injection of 10^8 parasitized erythrocytes results, at day 1 (D1), in a parasitemia level of between 5% and 10% (7.2%±0.2%). The Plasmodium vinckei petteri strain is maintained by weekly infection in mice with 10^7 to 10^8 parasitized erythrocytes suspended in a saline phosphate buffer (0.9%) (infection by intraperitoneal administration).
The products are dissolved in a 0.3M phosphate buffer (pH=8.1). The final concentration of the T3 solution is between 40 and 200 mg/l depending on the dose. The final concentration of the artesunate solution is between 100 and 500 mg/l depending on the dose. The products are administered ip. The administration volume is of the order of 100 μl, but depends on the weight of the mouse.
The mice are treated once a day for 4 days, on days D1, D2, D3 and D4 (Peters, W., J. H. Portus, and B. L. Robinson. 1975. The chemotherapy of rodent malaria. XXII. The value of drug-resistant strains of P. berghei in screening for blood schizonticidal activity. Ann. Trop. Med. Parasitol. 69:155-171; and: Ancelin M L, Calas M., Bonhoure A., Herbute S, and Vial H., In vivo antimalarial activity of mono and bis quaternary ammonium salts interfering with Plasmodium phospholipid metabolism. Antimicrob. Agents Chemother., 2003, 47, 2598-2605). Four mice are used per dose.
The animal is given, by ip administration, according to the case, T3, artesunate or the mixture of the two active ingredients solubilized.
At the 5th day, a few drops of blood are taken from the tail of the mouse in order to determine the parasitemia by FACS (fluorescence-activated cell sorter) and to perform a blood smear. The parasitemia is first determined by FACS on 20 000 cells. The red blood cells taken for the FACS are fixed with glutaraldehyde and then labeled with a fluorochrome (YOYO1®) which labels DNA and therefore only the parasitized cells (Barkan, D., Ginsburg, H., and Golenser, J. 2000. Optimisation of flow cytometric measurement of parasitaemia in plasmodium-infected mice. Int. J. Parasitol. 30: 649-653). The parasitemias below 15% are subsequently recounted on smears. The smears are fixed with methanol and then stained with Giemsa stain. The number of parasitized blood cells is counted under a microscope. The parasitemia is expressed as percentage of infected erythrocytes present in the specimen, on a sample of 2000 cells. The ED50 and ED90 values are determined at D5. The parasitemia is determined from the 1st to the 10th day of treatment, and then at the 15th, 22nd and 47th days.
The curative dose is the dose of product which ensures the survival of the entire treated batch of animals after one month.
0% inhibition corresponds to the mean of the parasitemias observed in the nontreated, infected mice. 100% inhibition corresponds to a very weak or null parasitemia, below 0.01%. The ED50 values are determined by linear interpolation of the dose-response curve represented in logarithm of concentrations.

On to `C[C@H]1[C@H](OC(=O)CCC(=O)O)O[C@@H]2O[C@@]3(C)CC[C@H]4[C@H](C)CC[C@@H]1[C@@]24OO3` [artesunate, reference compound], for which, for the setting “Artesunate 2.5 mg/kg/d alone, ip D1-D4, D5”, the “parasitaemia D5” value is reported as 53.20%. The “parasitaemia D1” value (Artesunate 2.5 mg/kg/d alone, ip, D1 (first treatment day)) amounted to 7.00%. Further, the “parasitaemia D2” value (Artesunate 2.5 mg/kg/d alone, ip, D2 (24 h after first administration)) is 32.90%. Moreover, the “activity on the parasitemia at 4 days” value (artesunate 0.5 mg/kg/d) was “completely inactive”. Moreover, under “artesunate alone 2.5 mg/kg/day”, the “complete recovery after one month” value is on record as “does not”. For the same molecule, under “artesunate alone, at the doses tested, ip (FIG. 1)”, the “effect on parasitemia on the first day and following days” value is “does not reduce the parasitemia”. Further, the ED50 (dose giving 50% decrease in parasitaemia, ip once a day D1-D4, determined at D5, compound alone) was above 2.5 mg/kg/day.
